{"source": "patent US20080125414A1", "about": "“Method of Treatment” (priority 2002, published 2008)", "type_in_all_cases": "in vivo", "key": {"[1]": {"system": "patient undergoing opioid therapy", "assay": "Clinical studies of devazepide in combination with an opioid (opioid dose reduction)", "details": "for reduction of opioid dose: clinical studies, devazepide with opioid"}, "[2]": {"system": "patients with neuropathic pain", "assay": "Open label multicentre continuation study of devazepide (clinical assessment study)", "details": "devazepide 1.25 mg, 2.5 mg or 5.0 mg twice daily for up to 26 weeks", "source_text": "Patients who took part in the study had pain with a neuropathic element, and were taking regular doses of strong opioids. […] The primary objective of this study was to compare descriptive and visual analogue scale (VAS) assessments of pain and pain relief in patients with neuropathic pain. […] Devazepide treatment was continued for a period of up to six months. During the study patients were required to remain on regular doses of opioids at a dose prescribed by the investigator. Patients were assessed at clinic visits at week 1, week 2 (dose escalation) and thereafter at routine monthly clinic visits. At weekly intervals for the first eight weeks and at monthly intervals thereafter, patients recorded pain and global pain relief using VAS and descriptive pain questionnaires. The questionnaires were returned to the Investigator at the monthly visits. At each clinic visit the Investigator assessed safety and the patients' pain relief, reviewed the dosage, and decided if devazepide treatment should be continued."}, "[3]": {"system": "patients with moderate or severe neuropathic pain", "assay": "Multi-centre, double blind placebo controlled crossover study of devazepide as adjunctive therapy to strong opioids"}}, "note": "“And” between values parts separate entries of the source, which are not always exact repeats. Equal entries are not always repeated.", "data": [{"compound": "CN1C(=O)[C@@H](NC(=O)c2cc3ccccc3[nH]2)N=C(c2ccccc2)c2ccccc21", "note": "[devazepide, 3s-(−) 1,3dihydro-3-(2-indolecarbonylamino)-1-methyl-5-phenyl-2H-1,4-benzodiazepin-2-one]", "values": [{"measurement": "reduction of opioid dose", "setting": "[1]; in others", "result": "≤ 75", "unit": "%"}, {"measurement": "reduction of opioid dose", "setting": "[1]; in some cases", "result": "≤ 95", "unit": "%"}, {"measurement": "effect in combination with an opioid", "setting": "[1]; opioid dose reduced concurrent with improved analgesia", "result": "superpotentiating"}, {"measurement": "patients who appeared to achieve long-term pain relief", "setting": "[2]; of seventeen patients, long-term = 5-26 weeks, with regular opioids", "result": "ten"}, {"measurement": "daily opioid dose", "setting": "[2]; several patients", "result": "markedly reduced"}, {"measurement": "Analgesic use expressed as a percentage of pre-treatment use (sum of daily dose)", "setting": "[3]; in vivo", "result": "100% and 67%"}, {"measurement": "Analgesic use expressed as a percentage of pre-treatment use (sum of daily dose)", "setting": "[3]; patient ap06/05, analgesic morphine (mg), devazepide 1.25 mg twice daily for two weeks", "result": 104, "unit": "%"}, {"measurement": "Analgesic use expressed as a percentage of pre-treatment use (sum of daily dose)", "setting": "[3]; patient ap06/05, analgesic morphine (mg), devazepide 5 mg twice daily for two weeks", "result": 100, "unit": "%"}, {"measurement": "Analgesic use expressed as a percentage of pre-treatment use (sum of daily dose)", "setting": "[3]; patient ap06/05, analgesic tramadol (mg), devazepide 1.25 mg twice daily for two weeks", "result": 79, "unit": "%"}, {"measurement": "Analgesic use expressed as a percentage of pre-treatment use (sum of daily dose)", "setting": "[3]; patient ap06/05, analgesic tramadol (mg), devazepide 5 mg twice daily for two weeks", "result": 54, "unit": "%"}, {"measurement": "Analgesic use expressed as a percentage of pre-treatment use (sum of daily dose)", "setting": "[3]; patient gg01/01, analgesic co-codamol (tablets), devazepide 1.25 mg twice daily for two weeks", "result": 106, "unit": "%"}, {"measurement": "Analgesic use expressed as a percentage of pre-treatment use (sum of daily dose)", "setting": "[3]; patient gg01/01, analgesic co-codamol (tablets), devazepide 5 mg twice daily for two weeks", "result": 78, "unit": "%"}, {"measurement": "Analgesic use expressed as a percentage of pre-treatment use (sum of daily dose)", "setting": "[3]; patient gg03/03, analgesic morphine (mg), devazepide 1.25 mg twice daily for two weeks", "result": 55, "unit": "%"}, {"measurement": "Analgesic use expressed as a percentage of pre-treatment use (sum of daily dose)", "setting": "[3]; patient gg03/03, analgesic morphine (mg), devazepide 5 mg twice daily for two weeks", "result": 93, "unit": "%"}, {"measurement": "Analgesic use expressed as a percentage of pre-treatment use (sum of daily dose)", "setting": "[3]; patient ng02/02, analgesic diclofenac (mg), devazepide 1.25 mg twice daily for two weeks", "result": 17, "unit": "%"}, {"measurement": "Analgesic use expressed as a percentage of pre-treatment use (sum of daily dose)", "setting": "[3]; patient ng02/02, analgesic diclofenac (mg), devazepide 5 mg twice daily for two weeks", "result": 50, "unit": "%"}, {"measurement": "Analgesic use expressed as a percentage of pre-treatment use (sum of daily dose)", "setting": "[3]; patient ng02/02, analgesic morphine (mg), devazepide 1.25 mg twice daily for two weeks", "result": 87, "unit": "%"}, {"measurement": "Analgesic use expressed as a percentage of pre-treatment use (sum of daily dose)", "setting": "[3]; patient ng02/02, analgesic morphine (mg), devazepide 5 mg twice daily for two weeks", "result": 84, "unit": "%"}, {"measurement": "Analgesic use expressed as a percentage of pre-treatment use (sum of daily dose)", "setting": "[3]; patient ng05/05, analgesic morphine (mg), devazepide 1.25 mg twice daily for two weeks", "result": 104, "unit": "%"}, {"measurement": "Analgesic use expressed as a percentage of pre-treatment use (sum of daily dose)", "setting": "[3]; patient ng05/05, analgesic morphine (mg), devazepide 5 mg twice daily for two weeks", "result": 100, "unit": "%"}, {"measurement": "Analgesic use expressed as a percentage of pre-treatment use (sum of daily dose)", "setting": "[3]; patient ng05/05, analgesic paracetamol (mg), devazepide 1.25 mg twice daily for two weeks", "result": 48, "unit": "%"}, {"measurement": "Analgesic use expressed as a percentage of pre-treatment use (sum of daily dose)", "setting": "[3]; patient ng05/05, analgesic paracetamol (mg), devazepide 5 mg twice daily for two weeks", "result": 14, "unit": "%"}, {"measurement": "Analgesic use expressed as a percentage of pre-treatment use (sum of daily dose)", "setting": "[3]; patient sj03/03, analgesic morphine (mg), devazepide 1.25 mg twice daily for two weeks", "result": 93, "unit": "%"}, {"measurement": "Analgesic use expressed as a percentage of pre-treatment use (sum of daily dose)", "setting": "[3]; patient sj03/03, analgesic morphine (mg), devazepide 5 mg twice daily for two weeks", "result": 97, "unit": "%"}, {"measurement": "Analgesic use expressed as a percentage of pre-treatment use (sum of daily dose)", "setting": "[3]; patient sj03/03, analgesic morphine (ml), devazepide 1.25 mg twice daily for two weeks", "result": 13, "unit": "%"}, {"measurement": "Analgesic use expressed as a percentage of pre-treatment use (sum of daily dose)", "setting": "[3]; patient sj03/03, analgesic morphine (ml), devazepide 5 mg twice daily for two weeks", "result": 5, "unit": "%"}, {"measurement": "Analgesic use expressed as a percentage of pre-treatment use (sum of daily dose)", "setting": "[3]; patient sj10/73, analgesic dihydrocodeine (mg), devazepide 1.25 mg twice daily for two weeks", "result": 100, "unit": "%"}, {"measurement": "Analgesic use expressed as a percentage of pre-treatment use (sum of daily dose)", "setting": "[3]; patient sj10/73, analgesic dihydrocodeine (mg), devazepide 5 mg twice daily for two weeks", "result": 50, "unit": "%"}, {"measurement": "Analgesic use expressed as a percentage of pre-treatment use (sum of daily dose)", "setting": "[3]; patient sj10/73, analgesic morphine (mg), devazepide 1.25 mg twice daily for two weeks", "result": 100, "unit": "%"}, {"measurement": "Analgesic use expressed as a percentage of pre-treatment use (sum of daily dose)", "setting": "[3]; patient sj10/73, analgesic morphine (mg), devazepide 5 mg twice daily for two weeks", "result": 98, "unit": "%"}, {"measurement": "Analgesic use expressed as a percentage of pre-treatment use (sum of daily dose)", "setting": "[3]; patient sj10/73, analgesic paracetamol (mg), devazepide 1.25 mg twice daily for two weeks", "result": 75, "unit": "%"}, {"measurement": "Analgesic use expressed as a percentage of pre-treatment use (sum of daily dose)", "setting": "[3]; patient sj10/73, analgesic paracetamol (mg), devazepide 5 mg twice daily for two weeks", "result": 50, "unit": "%"}]}]}
